Source: patent US9079913B2, “Spiro-oxindole MDM2 antagonists” (The Regents of the University of Michigan, priority 2009, dated 2015)
pIC50: −log10 of the molar value. Entries after “also recorded” stand apart in the source; their conditions may differ. Like-named read-outs stand apart in the source and are kept apart here.

Key:
SJSA-1 xenograft tumors = assay: In vivo efficacy, SJSA-1 xenograft model (tumor volume); parameters: species or system C.B-17 SCID mice; details: for % Tumor Growth Inhib. T/C Control 750 mm^3 D24: Exp. No. 2, SJSA-1 xenograft; for % Tumor Growth Inhib. T/C Control 750 mm^3 D29: Exp. No. 3, SJSA-1 xenograft
Experimental: SJSA-1 tumor cells were harvested with Trypsin (0.05%)-EDTA (0.53 mM) (GIBCO™, Invitrogen Corp.), growth medium added and cells placed on ice. A cell sample was mixed 1:1 with Trypan Blue (GIBCO™, Invitrogen Corp.) and counted on a hemocytometer to determine the number of live/dead cells. Cells were washed once with 1×PBS (GIBCO™, Invitrogen Corp.) and resuspended in PBS. For Matrigel injections, after washing in PBS, cells are resuspended in an ice cold mixture of 1:1 PBS and Matrigel (BD Biosciences, Invitrogen Corp.) for a final Matrigel protein concentration of 5 mg/ml. SJSA-1 tumors were inoculated into C.B-17 SCID mice at 5×10^6 cells in 0.1 ml with Matrigel. Cells were injected s.c. into the flank region of each mouse using a 27 gauge needle.
The size of tumors growing in the mice was measured in two dimensions using calipers. Tumor volume (mm^3)=(A×B2)/2 where A and B are the tumor length and width (in mm), respectively. During treatment, tumor volume and body weight was measured three times a week. […] Mice were kept for an additional 60 days for further observation of tumor growth and toxicity.

[1] = test system: cancer cell lines with wild-type p53 / mutated or deleted p53 (ATCC); assay: Cell growth assay (WST-8), other cancer cell lines; type: cell-based; details: for pIC50: Homo sapiens
[2] = test system: Isogenic HCT-116 colon cancer cell lines; assay: cells; type: cell-based; details: Homo sapiens;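 further: cells grown in 96-well plates in McCoy's 5A medium with 10% FBS, exposed to compound for 4 days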
Experimental: Cells were seeded in 96-well flat bottom cell culture plates at a density of 2−3×10^3 cells/well with compounds and incubated for 4 days.

[3] = In vitro microsomal stability, rat; type: in vitro ADME
[4] = Animal weight in SJSA-1 xenograft studies; type: in vivo, C.B-17 SCID mice; details: SJSA-1 xenograft mice
Experimental: The size of tumors growing in the mice was measured in two dimensions using calipers. Tumor volume (mm^3)=(A×B2)/2 where A and B are the tumor length and width (in mm), respectively. During treatment, tumor volume and body weight was measured three times a week. After the treatment was stopped, tumor volume (FIGS. 7, 9, 11, and 36) and body weight (FIGS. 8, 10, 12, and 37) was measured at least once a week. Mice were kept for an additional 60 days for further observation of tumor growth and toxicity.
Before treatment began, tumors were allowed to grow to 60-140 mm^3 in volume, at which point the blood vessel supplies to the tumor should have been established. Mice with tumors within acceptable size range were randomized into treatment groups of 8 mice for experimental compounds and 10 mice for the Control group. Experimental compounds were given orally, once per day for 2-3 weeks. The Control group received vehicle alone (10% PEG 400: 3% Cremophor: 87% PBS).

[5] = In vitro microsomal stability, human; type: in vitro ADME
[6] = Pharmacokinetic studies in rats; type: in vivo, rat; details: for CLz / Vd: rat, IV, 5 mg/kg, plasma, parent compound; for Vd: iv, read-out: Vz
Experimental: Pharmacokinetic studies on MDM2 inhibitors were carried out in rat. For comparison, the MDM2 inhibitor, AT-219, was also studied.

[7] = LNCaP, read-out: LNCAP (p53 wild-type) IC50
[8] = SJSA-1, read-out: SJSA-1 (p53 wild-type) IC50
[9] = HCT-116, read-out: HCT-116 (p53 wild-type) IC50

CC(C)(C)C[C@H]1N[C@@H](C(=O)N[C@H]2C[C@@H](O)C2)[C@H](c2cccc(Cl)c2F)[C@@]12C(=O)Nc1cc(Cl)ccc12 (stereo in doubt) [MI-519-63]
% Tumor Growth Inhib. T/C Control 750 mm^3 D24 (SJSA-1 xenograft tumors; PO 100 mg/kg): 0.0% | pIC50 [1, 7]: 5.64 | pIC50 [1, 8]: 5.68 | pIC50 [2, 9]: 5.70 | % of compound remaining when incubated in rat liver microsomes with NADPH ([3]; 0 min): 100% | % of compound remaining when incubated in rat liver microsomes with NADPH ([3]; 5 min): 66.01% | % of compound remaining when incubated in rat liver microsomes with NADPH ([3]; 10 min): 53.79% | % of compound remaining when incubated in rat liver microsomes with NADPH ([3]; 15 min): 46.44% | % of compound remaining when incubated in rat liver microsomes with NADPH ([3]; 30 min): 29.41% | % of compound remaining when incubated in rat liver microsomes with NADPH ([3]; 45 min): 27.72% | % of compound remaining when incubated in rat liver microsomes with NADPH ([3]; 60 min): 23.28% | microsomal stability (in words) ([3]; rat liver microsomes): comparable microsomal stability to MI-219 | weight loss in the animals (in words) [4]: without significant weight loss | % of compound remaining when incubated in human liver microsomes with NADPH ([5]; 0 min): 100.00% | % of compound remaining when incubated in human liver microsomes with NADPH ([5]; 5 min): 77.75% | % of compound remaining when incubated in human liver microsomes with NADPH ([5]; 10 min): 59.66% | % of compound remaining when incubated in human liver microsomes with NADPH ([5]; 15 min): 50.42% | % of compound remaining when incubated in human liver microsomes with NADPH ([5]; 30 min): 31.21% | % of compound remaining when incubated in human liver microsomes with NADPH ([5]; 45 min): 26.74% | % of compound remaining when incubated in human liver microsomes with NADPH ([5]; 60 min): 21.5% | microsomal stability (in words) ([5]; human liver microsomes): comparable microsomal stability to MI-219

CC(C)(C)C[C@H]1N[C@@H](C(=O)N[C@H]2C[C@@](C)(O)C2)[C@H](c2cccc(Cl)c2F)[C@@]12C(=O)Nc1cc(Cl)ccc12 [MI-519-64]
CLz [6]: 30 mL/min/kg | Vd [6]: 9 L/kg | % Tumor Growth Inhib. T/C Control 750 mm^3 D29 (SJSA-1 xenograft tumors; PO 30 mg/kg): 20.7% | % Tumor Growth Inhib. T/C Control 750 mm^3 D29 (SJSA-1 xenograft tumors; PO 100 mg/kg): 5.3% | cell growth inhibition (in words) [1]: more potent than its epimer MI-519-65; also recorded: effectively inhibit cancer cell growth | pIC50 [1, 7]: > 6.00 | pIC50 [1, 8]: > 6.00 | pIC50 ([2]; HCT-116, read-out: HCT-116 (p53-/-) IC50): < 5.00 | pIC50 [2, 9]: > 6.00 | % of compound remaining when incubated in rat liver microsomes with NADPH ([3]; 0 min): 100% | % of compound remaining when incubated in rat liver microsomes with NADPH ([3]; 5 min): 71.95% | % of compound remaining when incubated in rat liver microsomes with NADPH ([3]; 10 min): 64.86% | % of compound remaining when incubated in rat liver microsomes with NADPH ([3]; 15 min): 48.47% | % of compound remaining when incubated in rat liver microsomes with NADPH ([3]; 30 min): 43.38% | % of compound remaining when incubated in rat liver microsomes with NADPH ([3]; 45 min): 41.19% | % of compound remaining when incubated in rat liver microsomes with NADPH ([3]; 60 min): 43.03% | weight loss in the animals (in words) [4]: without significant weight loss | % of compound remaining when incubated in human liver microsomes with NADPH ([5]; 0 min): 100% | % of compound remaining when incubated in human liver microsomes with NADPH ([5]; 5 min): 83.66% | % of compound remaining when incubated in human liver microsomes with NADPH ([5]; 10 min): 80.61% | % of compound remaining when incubated in human liver microsomes with NADPH ([5]; 15 min): 65.86% | % of compound remaining when incubated in human liver microsomes with NADPH ([5]; 30 min): 61.26% | % of compound remaining when incubated in human liver microsomes with NADPH ([5]; 45 min): 55.9% | % of compound remaining when incubated in human liver microsomes with NADPH ([5]; 60 min): 53.21%

CC(C)(C)C[C@H]1N[C@@H](C(=O)NC2CCC(O)CC2)[C@H](c2cccc(Cl)c2F)[C@@]12C(=O)Nc1cc(Cl)ccc12 (stereo partly shown) [MI-773]
oral bioavailability / oral pharmacokinetics in rats (in words) ([6]; oral dosing, rats): good oral bioavailability; also recorded: high oral bioavailability | CLz [6]: 16.7 mL/min/kg | Vd [6]: 3 L/kg | pharmacokinetic profile (in words) ([6]; rats, intravenous and oral routes of dosing): improved PK parameters over MI-219 | % Tumor Growth Inhib. T/C Control 750 mm^3 D24 (SJSA-1 xenograft tumors; PO 100 mg/kg): 3.2% | % Tumor Growth Inhib. T/C Control 750 mm^3 D29 (SJSA-1 xenograft tumors; PO 30 mg/kg): 24.3% | % Tumor Growth Inhib. T/C Control 750 mm^3 D29 (SJSA-1 xenograft tumors; PO 100 mg/kg): 1.2% | in vivo efficacy (in words) (SJSA-1 xenograft tumors; SJSA-1 xenograft, oral once per day 2-3 weeks): good in vivo efficacy | pIC50 [1, 7]: > 6.00 | pIC50 ([1]; PC-3, read-out: PC-3 (deleted p53) IC50): < 5.00 | pIC50 [1, 8]: > 6.00 | pIC50 ([2]; HCT-116, read-out: HCT-116 (p53-/-) IC50, Table 19A, HCT-116 p53-/-, cell growth): < 5.00 | pIC50 ([2]; HCT-116, read-out: HCT-116 (p53 wild-type) IC50, Table 19A, HCT-116 p53 wild-type, cell growth): > 6.00 | % of compound remaining when incubated in rat liver microsomes with NADPH ([3]; rat liver microsomes, NADPH, 0 min): 100.00% | % of compound remaining when incubated in rat liver microsomes with NADPH ([3]; rat liver microsomes, NADPH, 5 min): 81.32% | % of compound remaining when incubated in rat liver microsomes with NADPH ([3]; rat liver microsomes, NADPH, 10 min): 60.00% | % of compound remaining when incubated in rat liver microsomes with NADPH ([3]; rat liver microsomes, NADPH, 15 min): 56.58% | % of compound remaining when incubated in rat liver microsomes with NADPH ([3]; rat liver microsomes, NADPH, 30 min): 46.11% | % of compound remaining when incubated in rat liver microsomes with NADPH ([3]; rat liver microsomes, NADPH, 45 min): 41.18% | % of compound remaining when incubated in rat liver microsomes with NADPH ([3]; rat liver microsomes, NADPH, 60 min): 33.26% | half-life ([3]; rat, liver microsomes, rat liver microsomes with NADPH): 17.3 min | weight loss in the animals (in words) [4]: without significant weight loss | microsomal stability (in words) ([5]; human liver microsomes): more stable than MI-219 | % of compound remaining when incubated in human liver microsomes with NADPH ([5]; human liver microsomes, NADPH, 0 min): 100.00% | % of compound remaining when incubated in human liver microsomes with NADPH ([5]; human liver microsomes, NADPH, 5 min): 83.70% | % of compound remaining when incubated in human liver microsomes with NADPH ([5]; human liver microsomes, NADPH, 10 min): 82.97% | % of compound remaining when incubated in human liver microsomes with NADPH ([5]; human liver microsomes, NADPH, 15 min): 69.38% | % of compound remaining when incubated in human liver microsomes with NADPH ([5]; human liver microsomes, NADPH, 30 min): 52.36% | % of compound remaining when incubated in human liver microsomes with NADPH ([5]; human liver microsomes, NADPH, 45 min): 42.57% | % of compound remaining when incubated in human liver microsomes with NADPH ([5]; human liver microsomes, NADPH, 60 min): 28.77% | half-life ([5]; human, liver microsomes, human liver microsomes with NADPH): 31.5 min
